This is an account of results in patent US11576947B2, “Oral composition and method” (Kunming Lanchie Dental Hospital, LTD, priority 2019, dated 2023).

The conditions of data set [1]: hydrogen peroxide not stabilized, cited from earlier work.
Data set [2] is described as follows: Stability test in aqueous system (Brilliant Blue color dissipation). Type of data set: physicochemical. Also on record: key: ++++: no color dissipation; +++: slightly dissipation; ++: obvious dissipation; +: totally dissipated.
Data set [3] is described as follows: Stability test in propylene glycol (Brilliant Blue color dissipation). Type of data set: physicochemical. More on the design: key: ++++: no color dissipation; +++: slightly dissipation; ++: obvious dissipation; +: totally dissipated.
Data set [4] is described as follows: System stability evaluation: compatibility of ingredients with peroxide source and the system. As to conditions: for Effect on peroxide and system stability: summary of testing of Tables 2 and 3.
[5] abbreviates: water, 2.76% carbamide peroxide, 0.002% Brilliant Blue, compound amount 0.1%, 60 days, room temperature.
The mark [6] stands for this setting: propylene glycol, 2.76% carbamide peroxide, 0.002% Brilliant Blue, compound amount 0.1%, 60 days, room temperature.
The mark [7] stands for this setting: water, 2.76% carbamide peroxide, 0.002% Brilliant Blue, compound amount 15%, 60 days, room temperature.
The mark [8] stands for this setting: propylene glycol, 2.76% carbamide peroxide, 0.002% Brilliant Blue, compound amount 15%, 60 days, room temperature.
The mark [9] stands for this setting: water, 2.76% carbamide peroxide, 0.002% Brilliant Blue, compound amount 1%, 60 days, room temperature.
Where [10] appears, read: propylene glycol, 2.76% carbamide peroxide, 0.002% Brilliant Blue, compound amount 1%, 60 days, room temperature.
[11] abbreviates: water, 2.76% carbamide peroxide, 0.002% Brilliant Blue, compound amount 2%, 60 days, room temperature.
[12] abbreviates: propylene glycol, 2.76% carbamide peroxide, 0.002% Brilliant Blue, compound amount 2%, 60 days, room temperature.

Read-outs that look alike come from different tables or passages of the source.

Take `[Al+3]` [Al (III)]: the “Oxygen lost % (24 hr, 100 C.)” value in data set [1] (metal ion added 10 ppm) is on record as 2%.

Regarding `O=P([O-])([O-])OP(=O)([O-])[O-].[Ca+2].[Ca+2]` [Calcium pyrophosphate], the “Color (color fading grade)” value in data set [2] and in data set [3] was “+” in each case.

As for `N=C(NCCCCCCNC(=N)NC(=N)Nc1ccc(Cl)cc1)NC(=N)Nc1ccc(Cl)cc1` [Chlorhexydine, reference compound], the “Color (color fading grade)” value is “+” in data set [2] (setting [5]) and “++” in data set [3] (setting [6]).

Take `[Cu+2]` [Cu(II)]: the “Oxygen lost % (24 hr, 100 C.)” value in data set [1] (metal ion added 0.01 ppm) was 24%.

On to `O=C([O-])CN(CCN(CC(=O)[O-])CC(=O)O)CC(=O)O.[Na+].[Na+]` [Disodium EDTA], for which the “Color (color fading grade)” value in data set [2] (setting [5]) and in data set [3] (setting [6]) was “+++” throughout.

As for `[Fe+3]` [Fe(III)], the “Oxygen lost % (24 hr, 100 C.)” value in data set [1] (metal ion added 10 ppm) was 15%.

On to `OCC(O)CO` [Glycerin], for which the “Color (color fading grade)” value is recorded as “+” in data set [2] (water, 2.76% carbamide peroxide, 0.002% Brilliant Blue, compound amount 20%, 60 days, room temperature) and “++” in data set [3] (propylene glycol, 2.76% carbamide peroxide, 0.002% Brilliant Blue, compound amount 20%, 60 days, room temperature).

Turning to `CCCCCCCCCCCCCCCC[n+]1ccccc1.[Cl-]` [Hexadecylpyridinium Chloride, Hexadecylpyridinium chloride, reference compound], the “Color (color fading grade)” value is “+” in data set [2] (setting [5]) and “++” in data set [3] (setting [6]).

Regarding `CC1CCC(C(C)C)C(O)C1` (centres unmarked) [Menthol], the “Color (color fading grade)” value in data set [2] (setting [5]) and in data set [3] (setting [6]) was “+++” throughout. In addition, the “Compatibility with the system (cationic biocide and peroxide source)” value (from here on “Compatibility with the system”) in data set [4] was “compatible”.

Turning to `CCCCCCCCCC[N+](C)(C)CCCCCCCCCC.O=C1CC[C@@H](C(=O)[O-])N1` [PODA, Proline, 5-oxo-, ion(1-), N-decyl-N,N-dimethyl-1-decanaminium (1:1)], the “Color (color fading grade)” value is given as “+” in data set [2] (setting [5]) and “++” in data set [3] (setting [6]).

Consider `O=C([O-])[O-].[Ca+2]` [Precipitate calcium carbonate], for which the “Color (color fading grade)” value in data set [2] (setting [7]) and in data set [3] (setting [8]) was “+” in each case. In addition, in data set [4], the “Compatibility with the system” value is reported as “not compatible”. For the same compound, the “Effect on peroxide and system stability” value in data set [4] is “activate the peroxide and make the system unstable”.

Consider `CCCCCCCCCCCCOS(=O)(=O)[O-].[Na+]` [Sodium Dodecyl Sulfate], for which the “Color (color fading grade)” value in data set [2] (setting [9]) is recorded as “+”. Moreover, in data set [4], the “Compatibility with the system” value was “incompatible”; the “Effect on peroxide and system stability” value was “activate the peroxide and make the system unstable”. For the same compound, in data set [3] (setting [10]), the “Color (color fading grade)” value is “+”.

Take `O=P([O-])(O)OP(=O)([O-])O.[Na+].[Na+]` [Sodium acid pyrophosphate]: the “Color (color fading grade)” value in data set [2] (setting [9]) and in data set [3] (setting [10]) was “++” each time.

In the case of `[F-].[Na+]` [Sodium fluoride], the results for the “Color (color fading grade)” value in data set [2] (setting [5]) and in data set [3] (setting [6]) were “++” and “+++”, respectively.

As to `O=C1NS(=O)(=O)c2ccccc21.[Na]` [Sodium saccharin], the “Color (color fading grade)” value in data set [2] is recorded as “++”; in data set [3] it was “+++”. In data set [4], the “Compatibility with the system” value was “compatible”.

For `O=P(O)(O)OP(=O)(O)OP(=O)(O)O` [Sodium tripolyphosphate], in data set [4], the “Compatibility with the system” value is reported as “not compatible”. Further, the “Color (color fading grade)” value in data set [3] (propylene glycol, 2.76% carbamide peroxide, 0.002% Brilliant Blue, compound amount 5%, 60 days, room temperature) is recorded as “+”.

With `OC[C@@H](O)[C@@H](O)[C@H](O)[C@@H](O)CO` [Sorbitol], the “Color (color fading grade)” value is “+” in data set [2] (water, 2.76% carbamide peroxide, 0.002% Brilliant Blue, compound amount 60%, 60 days, room temperature) and “+” in data set [3] (propylene glycol, 2.76% carbamide peroxide, 0.002% Brilliant Blue, compound amount 60%, 60 days, room temperature).

With `OC[C@H]1O[C@H](O[C@]2(CCl)O[C@H](CCl)[C@@H](O)[C@@H]2O)[C@H](O)[C@@H](O)[C@H]1Cl` [Sucralose], the “Color (color fading grade)” value in data set [2] (water, 2.76% carbamide peroxide, 0.002% Brilliant Blue, compound amount 0.5%, 60 days, room temperature) is listed as “++”; in data set [3] (propylene glycol, 2.76% carbamide peroxide, 0.002% Brilliant Blue, compound amount 0.5%, 60 days, room temperature), “+++”. Moreover, the “Compatibility with the system” value in data set [4] is reported as “compatible”.

For `O=P([O-])([O-])OP(=O)([O-])[O-].[Na+].[Na+].[Na+].[Na+]` [Tetrasodium pyrophosphate], the “Color (color fading grade)” value in data set [2] and in data set [3] was “+” in each case. In data set [4], the “Compatibility with the system” value is on record as “not compatible”.

Consider `[Zn+2]` [Zn(II)], for which the “Oxygen lost % (24 hr, 100 C.)” value in data set [1] (metal ion added 10 ppm) was 10%.

On to Cocamidopropyl betaine, for which the “Color (color fading grade)” value in data set [2] (setting [11]) and in data set [3] (setting [12]) was “++++” in each case.

On to Fatty Alcohol Polyoxyethylene Ether 9, for which the “Color (color fading grade)” value in data set [2] (setting [11]) and in data set [3] (setting [12]) was “+++” each time. Also, in data set [4], the “Compatibility with the system” value is recorded as “compatible”.

Lauryl glucoside: the “Color (color fading grade)” value in data set [2] (setting [11]) and in data set [3] (setting [12]) was “+” throughout.

Consider Natural calcium carbonate, for which the “Color (color fading grade)” value in data set [2] (setting [7]) and in data set [3] (setting [8]) was “+” throughout. For the same compound, in data set [4], the “Compatibility with the system” value is listed as “not compatible”.

Consider Sucrose fatty acid ester, for which the “Color (color fading grade)” value in data set [2] (setting [9]) and in data set [3] (setting [10]) was “+” throughout.
